# Data reported in a melting point compilation (Tetko et al.; mined from patent text by program, amines drawn as free bases though some values may be those of a salt).
row,Compound,melting point [°C]
1,CCOCc1nc2c(N)nc3cc(-c4cccnc4)cnc3c2n1CC(C)C,177 to 179
2,N#Cc1cc(-c2nc3cncnc3s2)ccc1Oc1cccc(F)c1,189 to 190
3,CC(=O)SCSc1ncn(C(c2ccccc2)(c2ccccc2)c2ccccc2)n1,124 to 125
4,CCNCC1CN(c2c(F)cc3c(=O)c(C(=O)O)cn(C4CC4)c3c2F)CC1C (stereo not drawn),224 to 226
5,CC(C)(O)Cn1cnc2c(N)nc3cc(CCC(=O)N4CCOCC4)ccc3c21,217 to 218
6,CC(C)Oc1ccc(-c2cccs2)cc1C=O,186 to 187
7,Cc1ccc2c(c1)C(=O)N(C)Cc1c(C(N)=O)ncn1-2,290 to 294
8,O=C(c1ccc(NC(=O)C(O)(C(F)(F)F)C(F)(F)F)cc1)c1ccccn1,197 to 200
9,CSc1sc(-c2cn[nH]c2)c2c1C(=O)CC(C)(C)C2,213 to 215
10,Cc1ncc2c(c1OCC(=O)O)COC2c1ccc(F)cc1 (stereo not drawn),214
11,Cc1ccc(S(=O)(=O)Nc2ccccc2CCC(=O)c2cnc3sc(C)c(C)n23)cc1,168 to 169
12,Cn1c(CC#N)ccc1C(=O)c1ccccc1Cl,80 to 85
13,N#Cc1cc(C(N)=O)ccc1Cl,193
14,Cn1nc(OC2=CC(CF)(CF)Oc3ccc(C(F)(F)C(F)(F)F)cc32)ccc1=O,150 to 152
15,COc1cccc2c1CCc1nc(-c3ccncc3)oc1-2,158
16,COc1ccc2c(c1)CCC(C1CCC(O)C1(C)CC(C)(C)O)C2 (stereo not drawn),123 to 125
17,CCN(C)C(C)CN1CCc2c(c(=O)oc3cc(OC)ccc23)C1 (stereo not drawn),102 to 104
18,CC(C)(C)c1cc(CCC(=O)O)cc2c1OC(=O)C2,167 to 169
19,CCOC(=O)[C@H]1O[C@@H]1C(=O)N[C@@H](COCC(C)C)CC(C)C,60 to 63
20,Cc1noc(NC(=O)N2CCN(c3nccc(-c4cccc(F)c4)n3)CC2)c1C,161 to 162
21,O=C(SC(SC(=O)c1ccccc1)C(=O)O)c1ccccc1,82 to 83
22,O=C1CCc2cc(Br)ccc2O1,103 to 105
23,CC(CCC(=O)NC(C)(C)C)C1CC=C2C3=C(CCC21C)C1(C)CCC(O)C(C)(C)C1CC3 (stereo not drawn),171 to 176
24,O=C(CCC(=O)N1CCC[C@H]1C(=O)O)c1ccc(Cl)cc1,137 to 138
25,CCOC(=O)c1cc(S(=O)(=O)c2ccccc2)c2ccccn2c1=O,182

row,Compound,melting point [°C]
1,CC(C(=O)O)(c1ccc(N2CCOCC2)cc1)c1ccc(N2CCOCC2)cc1,217 to 223
2,COC=C(C(=O)OC)c1c(OC)ncnc1Oc1cccc(COc2ccccc2C#N)c1,132 to 135
3,Cc1ccc(N2CCN(Cc3n[nH]c4c(F)cccc34)CC2)cc1,176 to 177
4,COc1ccc(O)c(C2(O)C(=O)Nc3cccc(Br)c32)n1 (stereo not drawn),172 to 175
5,CSC(SC)=C(C(=O)c1ccc(C(F)(F)F)cc1S(C)(=O)=O)C(=O)C1CC1,137 to 139
6,COC(=O)c1cc(C(=O)OC)n(-c2ccc(Cl)cc2C(=O)c2ccccc2)n1,118 to 120
7,Clc1cc(Cl)n2ncc(Br)c2n1,73 to 75
8,COCOCc1ccc(C2Cn3cc(C(=O)NCc4ccc(Cl)cc4)c(=O)c4cc(CN5CCOCC5)cc(c43)O2)cc1 (stereo not drawn),236 to 239
9,COc1ccc(N2CCOCC2)c2sc(C(=O)NC3CCN(C(=O)OC(C)(C)C)CCC3O)nc12 (stereo not drawn),71 to 73
10,COc1cccc(C#CC#Cc2cc(C(F)(F)F)ccc2C(F)(F)F)c1,37
11,CC(=O)Nc1ccc(-c2c[nH]c(=O)cn2)cc1,268 to 275
12,CCCCCCCCC=CC(=O)c1c(C)[nH]n(-c2ccccc2)c1=O,40
13,COc1cc(C2c3cc4c(cc3C(O)CC2C(=O)O)OCO4)cc(OC)c1OC (stereo not drawn),181 to 182
14,Nc1c(CC(=O)O)cccc1Oc1ccc(Cl)c(Cl)c1,125 to 127
15,CNC(=O)[C@@H](N)Cc1ccc(OC)cc1,90 to 91
16,CSc1c(N)cnc2ccccc12,96 to 98
17,CCOC(=O)C(c1c(Cl)ccc(Cl)c1Cl)N(C(=O)CCl)c1ccc(Br)cc1 (stereo not drawn),141
18,Cc1cc(C2CC2)nc(NC(=O)NS(=O)(=O)c2cccc3c2OS(=O)(=O)C(C)C3)n1 (stereo not drawn),216 to 217
19,CC(C)(C)OC(=O)N[C@H](C(=O)N1CCC[C@H]1C(=O)OCc1ccccc1)C(C)(C)C,174
20,CC1(C)Oc2cc([N+](=O)[O-])c(N)cc2[C@@H](N2CCCC2=O)[C@@H]1O (relative stereo),244 to 245
21,N#Cc1ccc2c(c1)nc(/C=C/c1ccccc1)n2-c1ccccn1,172 to 173
22,CCCCCC1OCc2cc(C(=O)Oc3ccc(CCC)cc3)ccc2O1 (stereo not drawn),97.5
23,COC(=O)C(=O)c1cc(Cl)c(OCCOc2ccc3ccccc3c2)c(Cl)c1,120 to 121
24,COC(=O)C1=Cc2cc(-c3ccc(OC)cc3)ccc2S(=O)(=O)CC1,191 to 193
25,CC(C)n1c(=O)n(CC2CNCCO2)c2ccccc21 (stereo not drawn),95

row,Compound,melting point [°C]
1,Cc1cnc2sc(Sc3ccccc3)nn2c1=O,141 to 143
2,O=c1[nH]c2cc(Cl)ccc2c(O)c1Sc1ccc([N+](=O)[O-])cc1,> 300
3,CCc1cn(C2CC(O)C(CNC(=O)C(C)Cc3c(Cl)cccc3Cl)O2)c(=O)[nH]c1=O (mixture of isomers),194 to 197
4,COC(=O)c1nc(N(C)C)ccc1Oc1nc(OC)cc(OC)n1,125 to 127
5,CC(C)(C)c1ccc(S(=O)(=O)N2c3ccccc3C[C@H]2C(=O)NCc2ccc(Cl)cc2)cc1,69
6,C#CCc1c(C)cc(=O)n(O)c1-c1ccccc1,200
7,N=C(N)Nc1nc(C(=O)Nc2cccc(C(=O)NC(CC(=O)O)c3ccccc3)c2)cs1 (racemic),235
8,C[C@@H](N(CC(=O)O)C(=O)c1ccc(OCC(F)(F)F)cc1)[C@](O)(Cn1cncn1)c1ccc(F)cc1F (relative stereo),168 to 177
9,CNC(=O)COc1ccc(C(=O)CN2CCN(c3ccncc3)CC2)cc1,169 to 171
10,Cc1ccc(C)n1-c1ccc(C(C)NO)cc1 (stereo not drawn),109 to 111
11,C=CCCNCc1nnc2n1-c1ccc(Cl)cc1C(c1ccccc1)=NC2,157 to 160
12,Cc1cc(NC(=O)c2cc(C#N)cc(C)n2)ccn1,302
13,CSCCC1N=C(c2ccccc2)c2cc(Cl)ccc2NC1=O (stereo not drawn),184
14,COC(=O)c1cc2ccnc(N)c2[nH]1,> 300
15,Cc1noc(NS(=O)(=O)c2ccccc2[N+](=O)[O-])c1C,91 to 94
16,CCCc1nn(C)c2c(=O)n(CCCc3cccc(OC(C)(CC)C(=O)O)c3)c(C)nc12 (stereo not drawn),136 to 138
17,CN(C)Cc1ccc(CSCCNC(=C[N+](=O)[O-])NCC(O)c2ccccc2)o1 (stereo not drawn),115 to 116
18,COc1ccc(N2CCN(c3ccc(N)cc3)CC2)cc1,192
19,CC(=O)N(C)Nc1nnc(-c2ccccc2C)s1,106 to 108
20,O=C(NC[C@H]1CN(c2ccc(C3C=CS(=O)(=O)CC3)cc2)C(=O)O1)C(F)F (stereo partly drawn),135 to 136
21,Nc1ccc2c(cnn2Cc2cccc(F)c2)c1,130
22,Cn1nc(-c2cnc(N)nc2-c2ccco2)ccc1=O,234
23,CCCCc1nn2c(C)c(-c3ccccc3)nc2n1Cc1ccc(-c2ccccc2-c2nnn[nH]2)cc1,207 to 208
24,Nc1ccc(-c2ccc(N)cc2C(=O)OCCCCCCOc2ccc(-c3ccccc3)cc2)c(C(=O)OCCCCCCOc2ccc(-c3ccccc3)cc2)c1,122 to 124
25,N#Cc1nn(-c2c(Cl)cc(C(F)(F)F)cc2Cl)c(Cl)c1C1CC1(Br)Br (stereo not drawn),104

row,Compound,melting point [°C]
1,COc1c(Cl)ccc(-c2cc(N)c(Cl)c(C(=O)NOC(C)C)n2)c1F,190 to 193
2,COC(=O)NC1=NCC(c2ccc(F)cc2)N1C (stereo not drawn),153 to 155
3,O=C1CC(CN2C(=O)c3ccccc3C2=O)=Nc2ccccc2N1,244 to 246
4,CC(=O)C1CCC2C3CCC4CC(O)C(Br)CC4(C)C3C(=O)CC12C (stereo not drawn),172 to 173
5,CCCCCC(CC(=O)Nc1cc(C(N)=O)ccc1CCCC)c1ccc(C(O)C(C)C)cc1OC (stereo not drawn),162 to 163
6,CCOC(=O)C=Cc1ccncc1,64 to 66
7,Cc1cc(CO)n(CCCOc2cc3c(cc2C)OC2(CC(C)(C)c4cc(O)c(C)cc4O2)CC3(C)C)n1 (stereo not drawn),208 to 210
8,CCOC(=O)c1c(O)c2ccc(C)nc2n(CC)c1=O,138 to 140
9,CCOC(=O)c1c2n(c3c(F)c(F)c(F)cc3c1=O)C(C)S2 (stereo not drawn),206 to 210
10,CC1(C)Cc2cc(Cl)ccc2C=[N+]1[O-],64.5 to 66.5
11,O=c1nc(-c2cccc(CCCO)n2)sc2ccccc12,146
12,CCC(OC(=O)CCNC(=O)OC(C)(C)C)c1cc2n(c(=O)c1C)Cc1cc3ccccc3nc1-2 (stereo not drawn),155 to 158
13,O=C(Nc1ccccc1C(F)(F)F)OCc1nccn1-c1cc2cc(C(=O)O)c(=O)[nH]c2cc1Cl,> 300
14,CNC(=O)N(O)Cc1ccc(OCCc2nc(-c3ccccc3)oc2C)cc1,139 to 144
15,NC(=NCC(F)(F)F)Nc1ccnc(CCCCNC(=S)NCC(F)(F)F)n1,142 to 145
16,COC(=O)c1ccc(CCN(C)CCCC(C#N)(c2cccc(C(=O)OC)c2)C(C)C)cc1 (stereo not drawn),108 to 112
17,O=C(N[C@H]1CCN(CCc2ccc(F)cc2)C1)C(C1CCCCC1)C1CCCCC1,122 to 124
18,CC(C)(C)OC(=O)Nc1ccc(CN2C(=O)C3(COc4cc5c(cc43)OCCO5)c3ccccc32)cn1 (stereo not drawn),238 to 239
19,Nc1ncnc2c1c(-c1cn[nH]c1)nn2Cc1oc2ccc(F)cc2c(=O)c1-c1ccccc1,211 to 214
20,O=C(O)CN1CN(c2ccccc2)C2(CCCCC2)C1,162 to 164
21,CN(C)CC(O)Cn1c2ccccc2c2c3c(c4c5ccccc5n(C)c4c21)C(=O)NC3=O (stereo not drawn),130 to 135
22,O=c1c(Cl)c(Cl)cnn1CC=Cc1ccccc1,98 to 99
23,CC(C)OC(=O)OCOC(=O)[C@H]1[C@@H]2CC[C@@](N)(C(=O)O)[C@@H]21,196 to 197
